In patent US8541476B2, “Compounds for treatment of malignant tumors” (The Trustees of the University of Pennsylvania, priority 2007, dated 2013):

Columns and labels:
Assay type in all cases: cell-based, human
[1] = tested on: A549 non-small cell lung cancer cells; assay: Clonogenic survival assay, A549 cells; conditions: A549, 5 μM for 12 hours prior to IR
Description: Clonogenic survival assays were performed as described by Koumenis, et al., 2002, (Mol. Cell Biol. 22:7405-16), which reference is incorporated herein in its entirety. U251, HT-29, or A549 cells were plated at different densities in triplicate, treated with NS-123 or DMSO (alone) and irradiated 4, 8, or 12 hours later with a range of doses using ^137Cs γ-rays at a dose rate of ˜4 Gy/minute (min). One hour after irradiation, the medium was replaced with fresh medium without NS-123 or DMSO. The cells were fixed 7-14 days after IR and stained with crystal violet. Colonies greater than 50 cells were then counted and normalized against the non-irradiated controls for each treatment. […] NHA cells were plated in 24-well plates in quadruplicate at equal density, treated with equal volumes of NS-123 or DMSO (alone) and irradiated as described above. One hour after irradiation, the medium was replaced with fresh ABM. Five days later, the MTS assay was used to evaluate cell survival as above.
To exclude the possibility that the radiosensitizing effect of NS-123 was specific to a single cell line, the radiosensitizing effect of NS-123 was tested on additional cell lines of different tissue origin. Clonogenic survival assays were performed. […]

[2] = tested on: dsDNA break repair in U251 cells; assay: DSB measurement by PFGE and number average length analysis; conditions: U251, 30 μM 4 hours, 4 Gy
Description: Cells were treated with 30 μM NS-123 or DMSO alone. Four hours later, the cells were either sham-irradiated, or irradiated with 4 Gy of ^137Cs γ-rays (Radiation Facility, Brody School of Medicine, ECU) at the dose rate of 0.57 Gy/min and placed immediately at 37° C. in fresh medium without NS-123 and harvested at different repair times up to 24 hours. No significant changes in the percentage of dead cells were detected by trypan blue exclusion as a result of irradiation. […] A DNA dispersion curve relating DNA length to electrophoretic mobility, based on all length standards was determined from an analytical mobility function as previously described using number average length analysis (NALA) (Seo, et al., 2005, Clin. Cancer Res. 11:7499-507).
As a first step in understanding the mechanism of the radiosensitizing activity of NS-123, the processing of DSBs in U251 cells treated with 30 μM NS-123 or DMSO (control) was measured using an adaptation of PFGE. […] Therefore, a 4 hour, 30 μM NS-123 treatment for experiments analyzing the effects of NS-123 on DSB repair and immunoblotting was used (see below) which require a significant quantity of cells. […]

U251 glioma cell line = assay: Chemical library radiosensitizer screen (MTS assay, paired plates 4 Gy / unirradiated); conditions: U251, 8 hours at 2.5 μM, MTS four days later
Description: Six hundred U251 cells were plated per well in 96 well plates. Cells in each well were then treated with a different compound from the Nanosyn library for 8 hours at 2.5 μM concentration. Treatment was performed with paired 96-well plates; one plate was exposed to 4 Gy and the other plate was an unirradiated control. One hour after irradiation, the medium was replaced with fresh medium alone. Four days later, the MTS assay was used to evaluate cell survival. Absorbance was measured at 490 nm with a microplate reader (Sprectramax, Molecular Devices, Sunnyvale, Calif.). Radiosensitivity factors (RSF) were calculated according to the following formula for each compound tested with the assay:
[formula] Survival Assays
The small chemical compound chemical library (Nanosyn, Inc.) was replicated in a 96-well format and compounds were dissolved in DMSO at a concentration of […]. Using the U251 glioma cell line, the radiosensitizing capability of 870 compounds was initially assayed within the library. The assay was optimized in terms of the number of cells, radiation dose used, and the number of days incubated so that a decrease in survival could be assessed. […] The structure of three novel radiosensitizing compounds is depicted in FIG. 1B.

CCC(=O)c1ccc(Br)c([N+](=O)[O-])c1 [NS-123, 4′-bromo-3′-nitropropiophenone]
DER at 0.1 survival [1]: 1.4 | initial number of dsDNA breaks [2]: 88.5±5.3 DSBs/Gbp | residual DSB damage compared to initial levels ([2]; 24 hours repair): ~25% | average Radiosensitivity factor (RSF) (U251 glioma cell line): 4.62
